Measurements: patent US9546151B2, “VMAT inhibitory compounds” (Oregon Health & Science University, priority 2014, dated 2017)
Counter-ions that a name gives are not always drawn. Like-named read-outs stand apart in the source and are kept apart here.

Key:
VMAT2 [1] = molecular target: T1, VMAT2 (Homo sapiens, UniProt Q05940); experiment: hVMAT2 [3H]DTBZ ([3H]DHTB) binding assay; set-up: expressed in transfected cells; host or cells: HEK (human embryonic kidney) cells
Method: (§1) Membrane preparation for binding, uptake and release assays using HEK-hVMAT2 cells: Human embryonic kidney cells expressing the human vesicular monoamine transporter 2 (HEK-hVMAT2) were used. HEK-hVMAT2 cells were grown until confluent. The media was removed from plates, solution A [sucrose (0.32 M) with protease inhibitors] was added to the plate, and cells were scraped from plate. Cells were homogenized with 12 strokes of a glass/glass homogenizer. The homogenate was centrifuged at 800×g for 10 min. The supernatant was removed and saved, and the pellet was resuspended, homogenized and centrifuged as above. The supernatants were combined and centrifuged at 10,000×g for 20 min. The pellet was resuspended in solution A (0.75 ml). The membranes were osmotically shocked by addition of 2.625 ml ice cold water and homogenized by 5 strokes of a glass/Teflon homogenizer. The osmolarity was reestablished with addition of Tris (338 μl, 0.25M, pH 7.4 at 4° C.), sodium potassium tartrate (338 μl, 1.0 M), and MgSO4 (4 μl, 0.9M). The homogenate was centrifuged at 20,000×g for 20 min.
Binding was terminated by filtration over Whatman GF/C filters using a Tomtec 96-well cell harvester. Filters were washed for six seconds with ice-cold saline. Scintillation fluid was added to each square and radioactivity remaining on the filters was determined using a Wallac μ- or beta-plate reader. Specific binding was defined as the difference in binding observed in the presence and absence of Ro4-1284 (10 μM, generously supplied by Hoffman LaRoche). Three or more independent competition experiments were conducted with duplicate determinations.

VMAT2 [2] = molecular target: T1, VMAT2; experiment: hVMAT2 5HT Uptake; type: biochemical; set-up: expressed in transfected cells; host or cells: HEK (human embryonic kidney) cells
Method: as §1

[3] = cells printed in μM under a head in nM, HEK-hVMAT2 membranes
[4] = [^3H]5HT uptake, HEK-hVMAT2 preparation, read-out: hVMAT2 5HT Uptake IC50 (nM) ± SEM
[5] = cells printed in μM under a head in nM, read-out: hVMAT2 5HT Uptake IC50 (nM) ± SEM
[6] = HEK-hVMAT2 membranes, series 5 ligands tested as hydrochloride salts

T1 sequence (Q05940 whole entry): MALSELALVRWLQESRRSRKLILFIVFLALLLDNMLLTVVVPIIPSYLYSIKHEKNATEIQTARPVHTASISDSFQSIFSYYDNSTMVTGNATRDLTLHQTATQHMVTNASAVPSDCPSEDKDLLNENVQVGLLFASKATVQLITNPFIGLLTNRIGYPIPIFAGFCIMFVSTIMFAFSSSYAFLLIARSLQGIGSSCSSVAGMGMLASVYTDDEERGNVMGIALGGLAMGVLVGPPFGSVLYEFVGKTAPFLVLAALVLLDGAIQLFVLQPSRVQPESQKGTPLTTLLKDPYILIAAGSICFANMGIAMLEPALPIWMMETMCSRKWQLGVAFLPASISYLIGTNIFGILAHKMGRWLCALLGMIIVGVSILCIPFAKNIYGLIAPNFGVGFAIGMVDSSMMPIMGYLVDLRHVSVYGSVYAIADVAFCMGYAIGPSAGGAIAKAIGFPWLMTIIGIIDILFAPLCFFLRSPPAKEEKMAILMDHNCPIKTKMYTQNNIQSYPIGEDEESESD

SMILES | Ki (VMAT2 [1]; [3]) | IC50 (VMAT2 [2]; [4]) | melting point | also measured
CCOC(=O)[C@H]1CN(CCn2c(=O)[nH]c3ccccc3c2=O)CC[C@H]1c1cccc(OC)c1 (racemic) [Compound 5q, (±)-syn-Ethyl 1-(2-(2,4-dioxo-1,2-dihydroquinazolin-3(4H),-yl)ethyl)-4-(3-methoxyphenyl) piperidine-3-carboxylate] | > 10 µM | 180 ± 54 nM | – | –
CCOC(=O)[C@H]1CN(CCn2c(=O)[nH]c3ccccc3c2=O)CC[C@H]1c1cccc(OC(F)(F)F)c1 (racemic) (as salt: HCl) [Compound 5jj, (±)-syn-Ethyl 1-(2-(2,4-dioxo-1,2-dihydroquinazolin-3(4H)-yl)ethyl)-4-(3-(trifluoromethoxy)phenyl)piperidine-3-carboxylate] | – | – | 155 to 156 °C | –
CCOC(=O)[C@H]1CN(CCn2c(=O)[nH]c3ccccc3c2=O)CC[C@H]1c1ccc(OC)c(OC)c1 (racemic) [Compound 5dd, (±)-syn-Ethyl 4-(3,4-dimethoxyphenyl)-1-(2-(2,4-dioxo-1,2-dihydroquinazolin-3(4H),-yl)ethyl) piperidine-3-carboxylate] | > 10 µM | – | – | IC50 (VMAT2 [2]; [5]): > 3000 nM
CCOC(=O)C1=C(c2ccccc2C(F)(F)F)CCN(CCn2c(=O)[nH]c3ccccc3c2=O)C1 (as salt: HCl) [Compound 5hh, Ethyl 1-(2-(2,4-dioxo-1,2-dihydroquinazolin-3(4H)-yl)ethyl)-4-(2-(trifluoromethyl)phenyl)-1,2,5,6-tetrahydropyridine-3-carboxylate] | – | – | 153.5 to 154.5 °C | –
CCOC(=O)[C@H]1CN(CCn2c(=O)[nH]c3ccccc3c2=O)CC[C@H]1c1ccc(O)c(O)c1 (racemic) (as salt: HCl) [Compound 5ff, (±)-syn-Ethyl 4-(3,4-dihydroxyphenyl)-1-(2-(2,4-dioxo-1,2-dihydroquinazolin-3(4H)-yl)ethyl)piperidine-3-carboxylate] | – | – | 167 to 168.5 °C | –
CCOC(=O)[C@H]1CN(CCn2c(=O)[nH]c3ccccc3c2=O)CC[C@H]1c1ccc(N)cc1 (racemic) [Compound 5mm, (±)-syn-Ethyl 4-(4-aminophenyl)-1-(2-(2,4-dioxo-1,2-dihydroquinazolin-3(4H),-yl)ethyl) piperidine-3-carboxylate] | > 10 µM | 2150 ± 237 nM | – | –
CCOC(=O)[C@H]1CN(CCn2c(=O)[nH]c3ccccc3c2=O)CC[C@H]1c1cccc(C)c1 (racemic) [Compound 5y, (±)-syn-Ethyl 1-(2-(2,4-dioxo-1,2-dihydroquinazolin-3(4H),-yl)ethyl)-4-(m-tolyl)piperidine-3-carboxylate] | – | 53 ± 10 nM | – | Ki (VMAT2 [1]; [6]): > 6.2 µM
CCOC(=O)[C@H]1CN(CCn2c(=O)[nH]c3ccccc3c2=O)CC[C@H]1c1ccc(OC)cc1 (racemic) (as salt: HCl) [Compound 5r, (±)-syn-Ethyl 1-(2-(2,4-dioxo-1,2-dihydroquinazolin-3(4H),-yl)ethyl)-4-(4-methoxyphenyl) piperidine-3-carboxylate] | – | – | 153 to 154 °C | –
CCOC(=O)[C@H]1CN(CCn2c(=O)[nH]c3ccccc3c2=O)CC[C@H]1c1ccc(OC(F)(F)F)cc1 (racemic) (as salt: HCl) [Compound 5ii, (±)-syn-ethyl 1-(2-(2,4-dioxo-1,2-dihydroquinazolin-3(4H)-yl)ethyl)-4-(4-(trifluoromethoxy)phenyl)piperidine-3-carboxylate] | – | – | 150 to 151.5 °C | –
CCCn1c(=O)n(CCN2CC[C@H](c3ccc(F)cc3)[C@H](C(=O)OCC)C2)c(=O)c2ccccc21 (racemic) [Compound 6b, (±) syn-ethyl 1-(2-(2,4-dioxo-1-propyl-1,2-dihydroquinazolin-3(4H)-yl)ethyl)-4-(4-fluorophenyl)piperidine-3-carboxylate] | – | – | 96.8 to 97.7 °C | –
CCOC(=O)[C@H]1CN(CCn2c(=O)[nH]c3ccccc3c2=O)CC[C@H]1c1ccc(C)s1 [A1=CH3] | – | – | – | Ki (VMAT2 [1]): > 8 µM; IC50 (VMAT2 [2]): 312 ± 18 nM
CCOC(=O)[C@@H]1CN(CCn2c(=O)[nH]c3ccccc3c2=O)CC[C@@H]1c1ccc(C(N)=O)cc1 (racemic) [Compound 5i, (±) syn-ethyl 4-(4-carbamoylphenyl)-1-(2-(2,4-dioxo-1,2-dihydroquinazolin-3(4H)-yl)ethyl)piperidine-3-carboxylate] | > 3 µM | – | – | IC50 (VMAT2 [2]; [5]): > 10000 nM
CCOC(=O)[C@H]1CN(CCn2c(=O)[nH]c3ccccc3c2=O)CC[C@H]1c1ccc2c(c1)OCCO2 (racemic) (as salt: HCl) [Compound 5gg, (±)-syn-Ethyl 4-(2,3-dihydrobenzo[b][1,4]dioxin-6-yl)-1-(2-(2,4-dioxo-1,2-dihydroquinazolin-3(4H)-yl)ethyl)piperidine-3-carboxylate] | – | – | 178 to 179 °C | –
O=c1[nH]c2ccccc2c(=O)n1CCN1CC=C(c2ccc(F)cc2)CC1 | – | – | 208 °C | –
COC(=O)[C@H]1CN(CCn2c(=O)[nH]c3ccccc3c2=O)CC[C@H]1c1ccc(F)cc1 (racemic) (as salt: HCl) [Compound 10a, (±)-syn-Methyl 1-(2-(2,4-dioxo-1,2-dihydroquinazolin-3(4H),-yl)ethyl)-4-(4-fluorophenyl) piperidine-3-carboxylate] | – | – | 191.5 to 193 °C | –
CCOC(=O)[C@H]1CN(CCn2c(=O)[nH]c3ccccc3c2=O)CC[C@H]1CCc1ccccc1 (racemic) (as salt: HCl) [Compound 5v, (±)-syn-Ethyl 1-(2-(2,4-dioxo-1,2-dihydroquinazolin-3(4H)-yl)ethyl)-4-phenethylpiperidine-3-carboxylate] | – | – | 140 to 141 °C | –
CCOC(=O)[C@H]1CN(CCn2c(=O)[nH]c3ccccc3c2=O)CC[C@H]1c1ccccc1C (racemic) [Compound 5z, (±)-syn-Ethyl 1-(2-(2,4-dioxo-1,2-dihydroquinazolin-3(4H),-yl)ethyl)-4-(o-tolyl)piperidine-3-carboxylate] | > 5 µM | 31 ± 3 nM | – | –
CCOC(=O)[C@H]1CN(CCn2c(=O)[nH]c3ccccc3c2=O)CC[C@H]1c1ccc(OC(F)(F)F)cc1 (racemic) [Compound 5ii, (±)-syn-ethyl 1-(2-(2,4-dioxo-1,2-dihydroquinazolin-3(4H)-yl)ethyl)-4-(4-(trifluoromethoxy)phenyl)piperidine-3-carboxylate] | > 5 µM | – | – | –
CCOC(=O)[C@H]1CN(CCn2c(=O)[nH]c3ccccc3c2=O)CC[C@H]1c1ccc(CC)cc1 (racemic) [Compound 5t, (±)-syn-Ethyl 1-(2-(2,4-dioxo-1,2-dihydroquinazolin-3(4H),-yl)ethyl)-4-(4-ethylphenyl) piperidine-3-carboxylate] | – | 906 ± 14 nM | – | Ki (VMAT2 [1]; [6]): > 8.4 µM
CCOC(=O)[C@H]1CN(CCn2c(=O)[nH]c3ccccc3c2=O)CC[C@H]1c1ccccc1N(C)C (racemic) [Compound 5bb, (±)-syn-Ethyl 4-(2-(dimethylamino)phenyl)-1-(2-(2,4-dioxo-1,2-dihydroquinazolin-3(4H),-yl)ethyl) piperidine-3-carboxylate] | > 6 µM | – | – | IC50 (VMAT2 [2]; [5]): > 2000 nM
CCOC(=O)C1=C(c2ccccc2C(F)(F)F)CCN(CCn2c(=O)[nH]c3ccccc3c2=O)C1 [Compound 5hh, Ethyl 1-(2-(2,4-dioxo-1,2-dihydroquinazolin-3(4H)-yl)ethyl)-4-(2-(trifluoromethyl)phenyl)-1,2,5,6-tetrahydropyridine-3-carboxylate] | – | 328 ± 38 nM | – | –
CCOC(=O)[C@H]1CN(CCn2c(=O)[nH]c3ccccc3c2=O)CC[C@H]1c1ccc(C(C)C)cc1 (racemic) [Compound 5u, (±)-syn-Ethyl 1-(2-(2,4-dioxo-1,2-dihydroquinazolin-3(4H),-yl)ethyl)-4-(4-isopropylphenyl) piperidine-3-carboxylate] | – | 684 ± 249 nM | – | Ki (VMAT2 [1]; [6]): 1.62 ± 0.107 µM
CCOC(=O)[C@H]1CN(CCn2c(=O)[nH]c3ccccc3c2=O)CC[C@H]1c1cccc(N=[N+]=[N-])c1 (racemic) [Compound 5cc, (±)-syn-Ethyl 4-(3-azidophenyl)-1-(2-(2,4-dioxo-1,2-dihydroquinazolin-3(4H)-yl)ethyl)piperidine-3-carboxylate] | > 7 µM | 74 ± 11 nM | – | –
O=C(c1ccc(F)cc1)C1CCN(CCn2c(=O)[nH]c3ccccc3c2=O)CC1 [R1=H, R2=H] | – | 142 ± 23 nM | – | Ki (VMAT2 [1]; [6]): 0.119 ± 0.003 µM
CCOC(=O)[C@H]1CN(CCn2c(=O)[nH]c3ccccc3c2=O)CC[C@H]1c1ccc(OC)cc1 (racemic) [Compound 5r, (±)-syn-Ethyl 1-(2-(2,4-dioxo-1,2-dihydroquinazolin-3(4H),-yl)ethyl)-4-(4-methoxyphenyl) piperidine-3-carboxylate] | > 10 µM | 36 ± 11 nM | – | –
CCOC(=O)[C@H]1CN(CCn2c(=O)[nH]c3ccccc3c2=O)CC[C@H]1c1ccc(O)c(O)c1 (racemic) [Compound 5ff, (±)-syn-Ethyl 4-(3,4-dihydroxyphenyl)-1-(2-(2,4-dioxo-1,2-dihydroquinazolin-3(4H)-yl)ethyl)piperidine-3-carboxylate] | – | 333 ± 85 nM | – | –
